Data: the CheMixHub viscosity set

Experiment: xn = mol fraction of the nth substance listed

CC12CC3CC(C)(C1)CC(C)(C3)C2 + CCCCCCCCCCC
viscosity [mPa·s], 100 kPa
Details | x1 = 0.1004 | x1 = 0.1998 | x1 = 0.3004 | x1 = 0.4006 | x1 = 0.4992 | x1 = 0.6045 | x1 = 0.7008 | x1 = 0.8138 | x1 = 0.9014
293.15 K | 1.267 | 1.341 | 1.419 | 1.514 | 1.628 | 1.772 | 1.935 | 2.161 | 2.369
298.15 K | 1.16 | 1.227 | 1.294 | 1.374 | 1.47 | 1.595 | 1.737 | 1.939 | 2.134
303.15 K | 1.071 | 1.121 | 1.187 | 1.264 | 1.351 | 1.463 | 1.589 | 1.762 | 1.926
308.15 K | 0.987 | 1.038 | 1.095 | 1.165 | 1.246 | 1.348 | 1.46 | 1.612 | 1.76
313.15 K | 0.92 | 0.965 | 1.019 | 1.083 | 1.152 | 1.241 | 1.34 | 1.475 | 1.605
318.15 K | 0.86 | 0.9 | 0.948 | 1.006 | 1.073 | 1.155 | 1.245 | 1.369 | 1.48
323.15 K | 0.802 | 0.843 | 0.889 | 0.943 | 1.001 | 1.073 | 1.153 | 1.261 | 1.362

CCCCCCCCCCCCCC + CCCCCCCCCCCCCCCC
293.15 K, 101.33 kPa
Details | viscosity [mPa·s]
x1 = 0.276 | 3.067
x1 = 0.533 | 2.789
x1 = 0.773 | 2.529

CC(=O)OC1CCCCC1 + CCCCCCCCCCO
viscosity [mPa·s], 101 kPa
Details | 300 K | 310 K | 320 K
x2 = 0.0746 | 2.01 | 1.65 | 1.38
x2 = 0.1275 | 2.11 | 1.72 | 1.43
x2 = 0.184 | 2.26 | 1.82 | 1.51
x2 = 0.2015 | 2.3 | 1.86 | 1.55
x2 = 0.2425 | 2.42 | 1.95 | 1.6
x2 = 0.2741 | 2.54 | 2.03 | 1.66
x2 = 0.4169 | 3.15 | 2.47 | 1.98
x2 = 0.4886 | 3.61 | 2.81 | 2.23
x2 = 0.6055 | 4.41 | 3.35 | 2.62
x2 = 0.6993 | 5.27 | 3.95 | 3.04
x2 = 0.8435 | 7.56 | 5.49 | 4.1
x2 = 0.8806 | 8.17 | 5.85 | 4.37

CCCCCCCCCCCCCC + CCCCCCCCCCO
100 kPa, x1 = 0.3338
Details | viscosity [mPa·s]
298.2 K | 5.36
308.2 K | 3.89
318.2 K | 2.92

CC12CC3CC(C)(C1)CC(C)(C3)C2 + CCCCCCCCO
viscosity [mPa·s], 100 kPa
Details | x1 = 0.1004 | x1 = 0.2017 | x1 = 0.3008 | x1 = 0.3998 | x1 = 0.5015 | x1 = 0.5993 | x1 = 0.7 | x1 = 0.7997 | x1 = 0.9005
293.15 K | 7.78 | 6.71 | 5.79 | 5 | 4.3 | 3.75 | 3.3 | 2.98 | 2.76
298.15 K | 6.54 | 5.65 | 4.9 | 4.25 | 3.71 | 3.28 | 2.93 | 2.66 | 2.47
303.15 K | 5.53 | 4.81 | 4.2 | 3.68 | 3.24 | 2.88 | 2.59 | 2.37 | 2.21
308.15 K | 4.72 | 4.14 | 3.64 | 3.22 | 2.85 | 2.55 | 2.31 | 2.13 | 2
313.15 K | 4.03 | 3.57 | 3.18 | 2.83 | 2.53 | 2.28 | 2.08 | 1.93 | 1.82
318.15 K | 3.49 | 3.12 | 2.79 | 2.5 | 2.24 | 2.03 | 1.86 | 1.73 | 1.65
323.15 K | 3.03 | 2.72 | 2.45 | 2.22 | 2 | 1.83 | 1.69 | 1.58 | 1.51

ClC(Cl)=C(Cl)Cl + CCCCCCCO
303.15 K, 101 kPa
Details | viscosity [mPa·s]
x2 = 0.132 | 1.08
x2 = 0.2375 | 1.267
x2 = 0.3539 | 1.511
x2 = 0.4634 | 1.807
x2 = 0.5262 | 2.016
x2 = 0.5927 | 2.259
x2 = 0.6534 | 2.548
x2 = 0.7637 | 3.149
x2 = 0.8512 | 3.725
x2 = 0.9246 | 4.255

CCCCCCCCCCCCCC + CCCCCO
viscosity [mPa·s], 101.33 kPa
Details | x1 = 0.0999 | x1 = 0.2002 | x1 = 0.3001 | x1 = 0.3987 | x1 = 0.5009 | x1 = 0.6004 | x1 = 0.6996 | x1 = 0.8014 | x1 = 0.9002
293.15 K | 3.262 | 2.941 | 2.698 | 2.52 | 2.396 | 2.31 | 2.26 | 2.234 | 2.243
303.15 K | 2.499 | 2.274 | 2.103 | 1.982 | 1.896 | 1.845 | 1.82 | 1.817 | 1.829
313.15 K | 1.963 | 1.797 | 1.674 | 1.588 | 1.531 | 1.5 | 1.491 | 1.501 | 1.519
323.15 K | 1.556 | 1.441 | 1.353 | 1.297 | 1.259 | 1.241 | 1.246 | 1.262 | 1.285

O=[N+]([O-])c1ccccc1 + CCCCCO
293.15 K, 101.33 kPa
Details | viscosity [mPa·s]
x2 = 0.0258 | 1.964
x2 = 0.0556 | 1.924
x2 = 0.104 | 1.867
x2 = 0.18 | 1.856
x2 = 0.204 | 1.86
x2 = 0.2635 | 1.899
x2 = 0.2976 | 1.918
x2 = 0.3319 | 1.938
x2 = 0.3827 | 2.003
x2 = 0.4677 | 2.104
x2 = 0.6694 | 2.475
x2 = 0.8217 | 2.982
